{"source": "patent US20090050143A1", "about": "“MEDICINAL FORMULATION CONTAINER WITH A TREATED METAL SURFACE” (priority 2006, published 2009)", "assay_type_in_all_cases": "physicochemical", "key": {"[1]": {"assay": "Valve deposition measurement", "text": "Metered dose inhalers (MDIs) were fired 122 times to waste. The MDI was shaken for not less than 3 seconds prior to each actuation with a delay of at least 30 seconds between successive actuations. An additional 5 shots were then fired to waste with the MDI in a valve up orientation to clean out the valve. The metering valves were then removed from the MDIs and the outside of the stem cleaned to remove any residual drug adhering to the outer surface. The valve was immersed in diluent (acetonitrile:water 75:25 v/v) and sonicated for approximately 2 hours followed by shaking for at least 30 minutes. An aliquot was removed and analyzed for drug content by conventional HPLC analysis (albuterol sulfate and pirbuterol acetate: 55% 100 mM triethylamine phosphate with 5 mM sodium dodecyl sulfate, pH 2.5/45% methanol v:v, UV detection at 225 nm; flunisolide hemihydrate: 60% water/40% acetonitrile v:v, UV detection at 244 nm). Results are reported as an average of 5 to 8 replicates unless otherwise noted.\nIndividual valve components (stem, tank, spring, ferrule, and bottle emptier) were initially soaked in isopropanol (analytical reagent grade) for 30 minutes while exposed to ultrasonic agitation. Excess solvent was removed and the components were air dried.\nThe valve components were then immersed in a 0.1% w/w solution of A1 in methyl tertiary butyl ether (analytical reagent grade) in a sealed flask with a vacuum valve that was placed in a sonicator bath. The flask was sonicated and a vacuum was pulled until air escaped from the small bore in the stems (at least 2 minutes). The vacuum valve was then closed and the sample maintained under vacuum and sonication for an additional 30 minutes. Excess coating solution was then removed and the metering valves were rinsed and sonicated under vacuum in fresh isopropanol (analytical reagent grade) for 15 minutes. Excess rinsing solution was then removed and the metering valves were rinsed and sonicated under vacuum a second time in fresh isopropanol (analytical reagent grade) for 15 minutes. Excess rinsing solution was again removed and the metering valves were dried at 50° C. for at least 12 hours. The components were then assembled to form treated metered dose inhaler metering valves.\n[…] Approximately 8.7 g of medicinal formulation was added to an aluminum canister with an internal coating of FEP (tetrafluoroethylene/hexafluoropropylene copolymer). The canister was then sealed by crimping a treated valve onto the canister to form an MDI. The MDIs were stored in a valve down orientation after filling to ensure contact of the formulation with the valve. The amount of albuterol sulfate adsorbed to the valve was 112 (+/−25) μg measured according to the valve deposition method described above."}, "[2]": {"assay": "Visual observation of the inside surface of the metering tanks"}, "[3]": {"assay": "Triamcinolone acetonide remaining after storage with aluminum oxide powder (HPLC)", "procedure": "Aluminum oxide powder (Aldrich, neutral, activated Brockmann I, 150 mesh), which mimics aluminum oxide existing on the inner surface of aluminum containers was surface treated by being immersed in a 0.1% w/w solution of A1 in methyl tertiary butyl ether (analytical reagent grade) for 30 minutes while exposed to ultrasonic agitation. The methyl tertiary butyl ether solution was decanted and the powder was allowed to air dry. A triamcinolone stock solution (4 mM) was prepared by adding triamcinolone acetonide to ethanol. Approximately 0.1 g of treated powder was then placed in a vial containing 2 mL of triamcinolone stock solution and stored at 70° C. An extract of the triamcinolone solution was taken after one day of storage and analyzed using high performance liquid chromatography to determine remaining drug content. The amount of drug remaining is reported (in Table 1) as a percentage of the initial amount of drug present and was determined as the average of 3 independent measurements.\nAluminum oxide powder was surface treated and tested as described above with a variety of other organic surface treatment compounds. The type of compound, the amount of triamcinolone acetonide (TA) remaining after 1 day storage, and the percentage of aluminum oxide (AO) powder remaining chemically treated after exposure to drug solution in shown in Table 1.\nApproximately 0.1 g of untreated aluminum oxide powder was placed in a vial containing 2 mL of triamcinolone stock solution and stored at 70° C. An extract of the triamcinolone solution was taken after one day of storage and analyzed using high performance liquid chromatography to determine remaining drug content."}, "[4]": {"assay": "Triamcinolone acetonide remaining after storage in stainless steel canister (HPLC)", "details": "2 mM in ethanol", "procedure": "The internal surface of a stainless steel metered dose inhaler canister was treated with compound A1 (n-C4F9—(CH2)11—PO3H2) as follows. The canister was initially soaked in heptane (analytical reagent grade) for 30 minutes while exposed to ultrasonic agitation. The canister was then rinsed with heptane (analytical reagent grade) for one minute followed by a rinse with isopropanol (analytical reagent grade) and allowed to air dry. The canister was then immersed in a 0.1% w/w solution of A1 in methyl tertiary butyl ether (analytical reagent grade) for 30 minutes while exposed to ultrasonic agitation. The canister was then rinsed in methyl tertiary butyl ether (analytical reagent grade) for one minute and allowed to air dry.\nA triamcinolone stock solution (2 mM) was prepared by adding triamcinolone acetonide to ethanol. The canister was filled with 5 mL of the triamcinolone stock solution, sealed and stored at 70° C. An extract of the triamcinolone solution was taken after one day of storage and analyzed using high performance liquid chromatography to determine remaining drug content. […] An extract of the triamcinolone solution was taken after 7 days of storage and analyzed using high performance liquid chromatography to determine remaining drug content. The amount of triamcinolone acetonide remaining after 7 days was 83.0%.\nAn untreated stainless steel canister was filled with the medicinal formulation of Example 11. The amount of triamcinolone acetonide remaining after 1 day was 88.0%. An extract of the triamcinolone solution was taken after 7 days of storage and analyzed using high performance liquid chromatography to determine remaining drug content. The amount of triamcinolone acetonide remaining after 7 days was 18.0%."}, "[5]": {"details": "A1-treated valve, 0.02% w/w in HFA-227"}, "[6]": {"details": "untreated valve, 0.02% w/w in HFA-227"}, "[7]": {"details": "A1-treated valve vs untreated valves, 0.02% w/w in HFA-227"}, "[8]": {"details": "A1-treated valve, 0.05% w/w and 10% w/w ethanol in HFA-227"}, "[9]": {"details": "untreated valve, 0.05% w/w and 10% w/w ethanol in HFA-227"}}}
{"compound": "CC1(C)O[C@@H]2C[C@H]3[C@@H]4C[C@H](F)C5=CC(=O)C=C[C@]5(C)[C@H]4[C@@H](O)C[C@]3(C)[C@]2(C(=O)CO)O1", "note": "[flunisolide]", "values": [{"measurement": "amount of drug adsorbed to the valve", "setting": "[1]; [5]", "value": "23 (+/−7) μg"}, {"measurement": "amount of drug adsorbed to the valve", "setting": "[1]; [6]", "value": "41 (+/−7) μg"}, {"measurement": "visual observation of drug deposition in metering tanks", "setting": "[2]; [7]", "value": "considerably less drug deposition"}]}
{"compound": "CC1(C)O[C@@H]2C[C@H]3[C@@H]4CCC5=CC(=O)C=C[C@]5(C)[C@@]4(F)[C@@H](O)C[C@]3(C)[C@]2(C(=O)CO)O1", "note": "[triamcinolone acetonide]", "values": [{"measurement": "% TA remaining", "setting": "[3]; untreated aluminum oxide powder (C3), 4 mM triamcinolone acetonide in ethanol, 70° C, 1 day", "value": "11.5 (+/−1.2) %"}, {"measurement": "amount of triamcinolone acetonide remaining", "setting": "[4]; A1-treated stainless steel canister, 70° C, 1 day", "value": 94.9, "unit": "%"}, {"measurement": "amount of triamcinolone acetonide remaining", "setting": "[4]; A1-treated stainless steel canister, 70° C, 7 days", "value": 83.0, "unit": "%"}, {"measurement": "amount of triamcinolone acetonide remaining", "setting": "[4]; untreated stainless steel canister, 1 day", "value": 88.0, "unit": "%"}, {"measurement": "amount of triamcinolone acetonide remaining", "setting": "[4]; untreated stainless steel canister, 7 days", "value": 18.0, "unit": "%"}]}
{"compound": "pirbuterol acetate", "values": [{"measurement": "amount of drug adsorbed to the valve", "setting": "[1]; [5]", "value": "36 (+/−13) μg"}, {"measurement": "amount of drug adsorbed to the valve", "setting": "[1]; [6]", "value": "43 (+/−12) μg"}, {"measurement": "visual observation of drug deposition in metering tanks", "setting": "[2]; [7]", "value": "considerably less drug deposition"}]}
{"compound": "albuterol sulfate", "values": [{"measurement": "amount of drug adsorbed to the valve", "setting": "[1]; [8]", "value": "67 (+/−18) μg"}, {"measurement": "amount of drug adsorbed to the valve", "setting": "[1]; A1-treated valve, 0.05% w/w in HFA-134A, stored valve down", "value": "112 (+/−25) μg"}, {"measurement": "amount of drug adsorbed to the valve", "setting": "[1]; A1-treated valve, 0.05% w/w in HFA-227", "value": "134 (+/−54) μg"}, {"measurement": "amount of drug adsorbed to the valve", "setting": "[1]; [9]", "value": "75 (+/−9) μg"}, {"measurement": "amount of drug adsorbed to the valve", "setting": "[1]; untreated valve, 0.05% w/w in HFA-134A", "value": "138 (+/−24) μg"}, {"measurement": "amount of drug adsorbed to the valve", "setting": "[1]; untreated valve, 0.05% w/w in HFA-227", "value": "167 (+/−28) μg"}, {"measurement": "visual observation of drug deposition in metering tanks", "setting": "[2]; A1-treated valve vs untreated valves, 0.05% w/w in HFA-134A", "value": "considerably less drug deposition"}, {"measurement": "visual observation of drug deposition in metering tanks", "setting": "[2]; A1-treated valve vs untreated valves, 0.05% w/w in HFA-227", "value": "considerably less drug deposition"}, {"measurement": "visual observation of drug deposition in metering tanks", "setting": "[2]; [8]", "value": "minimal drug deposition"}, {"measurement": "visual observation of drug deposition in metering tanks", "setting": "[2]; [9]", "value": "minimal drug deposition"}]}
{"compound": "CC(C)CCCC(C)CCCC(C)CCCC(C)CCC(=O)O", "note": "(stereo not drawn) [A5, Phytanyl carboxylic acid]", "values": [{"measurement": "% TA remaining", "setting": "[3]; 24 h, 4 mM", "value": "71.5 (+/−3.2) %"}]}
{"compound": "CC(C)CCCC(C)CCCC(C)CCCC(C)CCP(=O)(O)O", "note": "(stereo not drawn) [A2, 1-phosphono-3,7,11,15-tetramethylhexadecane]", "values": [{"measurement": "% TA remaining", "setting": "[3]; 24 h, 4 mM", "value": "97.4 (+/−0.1) %"}]}
{"compound": "CCCCCCCCCCCCCCCCP(=O)(O)O", "note": "[A3, 1-phosphonohexadecane]", "values": [{"measurement": "% TA remaining", "setting": "[3]; 24 h, 4 mM", "value": "93.2 (+/−3.6) %"}]}
